Literature values as cited in patent US8877792B2, “Compositions for increasing solubility of azole drug compounds that are poorly soluble in water” (Dow Pharmaceutical Sciences, Inc., priority 2008, dated 2014).

Conditions: background statement, cited from earlier work

In the case of `Cc1ncc([N+](=O)[O-])n1CCO` [Metronidazole, metronidazole], the “aqueous solubility of metronidazole in water” value (room temperature) is given as “about 0.87 % w/w” and the “limit of metronidazole concentration for physically stable solutions in water” value (solutions that can withstand cold temperatures encountered during shipping) is given as “about 0.7 % w/w”.
